# Patent US20050003509A1, “Method for modulating C.albicans” (priority 2003, published 2005)
# Key:
# [1] = test system: C.albicans; test: induction of morphological transition (hyphae) in buffer; format: cell-based; settings: 10 mM proline or 2.5 mM Glc-Nac in 10 mM MES pH 6.4, 12 hours, 37° C.
# Description: To test this, stains were grown in YPD, as described supra, washed, and were resuspended in buffer at an OD600 of 1, or buffer (10 MM MES, pH 6.4) containing either 10 mM proline, or 2.5 mM Glc-Nac. The suspensions were incubated for 12 hours, at 37° C., after which the suspensions were examined microscopically.
# [2] = test system: S.cervesiae strain FGY145; test: growth of transformed shr3Δ6 S.cervesiae strain FGY145 with toxic amino acids; format: cell-based, S.cerevisiae; settings: 30° C., six days
# Description: Standard culture conditions and media for S.cervesiae and C.albicans have been described by Sherman, in Guthrie, ed. Guide to Yeast Genetics And Molecular Biology (Academic Press, 1991), pp. 3-21, incorporated by reference. To elaborate, Ura^− strains of C.albicans were grown in standard media, supplemented with 25 μg/ml of uridine. Tests on S.cerevisiae were carried out in SD medium supplemented with histidine, as well as various toxic amino acid analogs, i.e., L-canaranine (1 μg/ml), L-azetidine-2-carboxylate (500 μg/ml), B-chloro-D, L-alanine (100 μg/ml), p-fluoro-D, L-phenylalanine (400 μg/ml), D, L-ethionine (300 μg/ml), and 2-aminoethyl-L-cysteine (225 μg/ml). Ljungdahl, et al., Cell, 71:463-478 (1992), was followed to produce SPD and SPD containing 30 mM histidine.
# Cell suspension of shr3Δ6 S.cervesiae strain FGY145 described by Gilstring, et al., Mol. Cell Biol., 10:3549-3565 (1999), were transformed with either control plasma pRS316, pPL210, which encodes SHR3 and is described by Ljungdahl, et al., supra, or pPM20, which encodes CSH3, and is described supra. The transformants were spotted on the described SD media, and grown in the presence of the toxic amino acids described supra. Suspensions of the cells were also grown on SPD, and SPD containing 30 mM histidine. […]
# [3] = test system: C.albicans; test: growth on YNB medium with lysine as sole nitrogen source; format: cell-based; settings: 0, 0.1, 1 and 3 mM lysine
# Description: Cells were then grown on YNB medium, containing varying concentrations of lysine (0, 0.1, 1 and 3 mM), as sole nitrogen source. A striking gene dosage effect was observed. As expected, none of the strains were able to grow in the absence of lysine, whereas they grew weakly when 0.1 mM lysine was present, showing the C.albicans can metabolize lysine. […] The heterozygous strains have balanced the opposing activities.
smiles,measurement,setting,value
"CC(=O)N[C@H]1C(O)O[C@H](CO)[C@@H](O)[C@@H]1O (stereo partly drawn) [Glc-Nac, N-acetyl glucosamine]",hyphal development,[1]; (+/+) wild type,extensive hyphal development
same,hyphal development,[1]; (−/−) cells,extensive hyphal development
N[C@@H](Cc1c[nH]cn1)C(=O)O [histidine],growth sensitivity,[2]; transformants carrying SHR3 (CSH3 transformants indistinguishable),sensitive
same,growth sensitivity,[2]; transformants with control plasmid pRS316,resistant
NCCCC[C@H](N)C(=O)O [lysine],growth with increasing lysine concentration,[3]; CSH3/CSH3 (+/+) strain,decrease at concentrations above 1 mM
same,growth with increasing lysine concentration,[3]; heterozygous strains,robust growth at concentrations greater than 1 mM
same,growth with increasing lysine concentration,[3]; homozygous null mutant,improved noticeably
O=C(O)[C@@H]1CCCN1 [proline],hyphal development,[1]; (+/+) wild type,developed hyphae readily
same,hyphal development,[1]; (−/−) cells,only a few cells with short germ tubules
